Results taken from PMC10141580, “Cyclic Dichalcogenides Extend the Reach of Bioreductive Prodrugs to Harness Thiol/Disulfide Oxidoreductases: Applications to seco-Duocarmycins Targeting the Thioredoxin System” (ACS Central Science, 2023).
Like-named read-outs stand apart in the source and are kept apart here.

Tested on: panel of 140 standard cancer cell lines
Experiment: ProliFiler-140 cancer cell line screen (CellTiterGlo, 72 h)
Format: cell-based
Procedure: Incubations were performed for 72 h before automated viability readout with CellTiterGlo (Figure 8).
End of Figure S11 (part 5 of 5): ProliFiler-140 cancer cell line screening for cytotoxicity of the prodrugs.
8-data-point dose response curves from CellTiter-Glo® viability readout.
ProliFiler-140 cell line panel part V

COc1cccc2c1C(=O)c1c(O)c3c(c(O)c1C2=O)C[C@@](O)(C(=O)CO)C[C@@H]3O[C@H]1C[C@H](N)[C@H](O)[C@H](C)O1 [doxorubicin, reference compound]
IC50 (Homo sapiens, NCI-H2009, NCI-H2009 (Lung), read-out: IC50 [M] (ProliFiler-140)): 1.41e-07 M
IC50 (Homo sapiens, NCI-H2228, H2228 (Lung), read-out: IC50 [M] (ProliFiler-140)): 5.73e-08 M
IC50 (Homo sapiens, NCI-H2286, NCI-H2286 (Lung), read-out: IC50 [M] (ProliFiler-140)): 4.4e-08 M
IC50 (Homo sapiens, NCI-N87, NCI-N87 (Stomach), read-out: IC50 [M] (ProliFiler-140)): 2e-07 M
IC50 (Homo sapiens, OCI-AML-3, OCI-AML3 (Blood), read-out: IC50 [M] (ProliFiler-140)): 7.6e-08 M
IC50 (Homo sapiens, OCI-AML-5, OCI-AML5 (Blood), read-out: IC50 [M] (ProliFiler-140)): 3.1e-08 M
IC50 (Homo sapiens, OCI-LY19, OCI-LY19 (Blood), read-out: IC50 [M] (ProliFiler-140)): 5.55e-09 M
IC50 (Homo sapiens, OPM-2, OPM-2 (Blood), read-out: IC50 [M] (ProliFiler-140)): 2.43e-07 M
IC50 (Homo sapiens, OVCAR-3, OVCAR-3 (Ovary), read-out: IC50 [M] (ProliFiler-140)): 3.7e-07 M
IC50 (Homo sapiens, OVCAR-3, OVCAR-3, read-out: IC50): 3.7e-07 M
IC50 (Homo sapiens, P31-FUJ, P31/FUJ (Blood), read-out: IC50 [M] (ProliFiler-140)): 1e-07 M
IC50 (Homo sapiens, PANC-1, PANC-1 (Pancreas), read-out: IC50 [M] (ProliFiler-140)): 8e-07 M
IC50 (Homo sapiens, RL95-2, RL95-2 (Endometrium), read-out: IC50 [M] (ProliFiler-140)): 1.97e-07 M
IC50 (Homo sapiens, RPMI-8226, RPMI 8226 (Blood), read-out: IC50 [M] (ProliFiler-140)): 8.84e-08 M
IC50 (Homo sapiens, SAOS-2, Saos-2 EC (Bone), read-out: IC50 [M] (ProliFiler-140)): 2.02e-07 M
IC50 (Homo sapiens, SCLC-21H, SCLC-21H (Lung), read-out: IC50 [M] (ProliFiler-140)): 2.91e-07 M
IC50 (Homo sapiens, SJSA-1, SJSA-1 (Bone), read-out: IC50 [M] (ProliFiler-140)): 4.01e-07 M
IC50 (Homo sapiens, SK-BR-3, SK-BR-3 (Breast), read-out: IC50 [M] (ProliFiler-140)): 1.3e-07 M
IC50 (Homo sapiens, SK-ES1, SK-ES-1 (Bone), read-out: IC50 [M] (ProliFiler-140)): 2.61e-08 M
IC50 (Homo sapiens, SK-LU-1, SK-LU-1 (Lung), read-out: IC50 [M] (ProliFiler-140)): 2.7e-07 M
IC50 (Homo sapiens, SK-MEL3, SK-MEL-3 (Skin), read-out: IC50 [M] (ProliFiler-140)): 5.1e-07 M
IC50 (Homo sapiens, SK-N-FI, SK-N-FI (Brain), read-out: IC50 [M] (ProliFiler-140)): 1.36e-06 M
IC50 (Homo sapiens, SK-N-MC, SK-N-MC (Brain), read-out: IC50 [M] (ProliFiler-140)): 1.5e-08 M
IC50 (Homo sapiens, SK-N-SH, SK-N-SH (Brain), read-out: IC50 [M] (ProliFiler-140)): 9.8e-08 M
IC50 (Homo sapiens, SK-OV-3, SK-OV3 (Ovary), read-out: IC50 [M] (ProliFiler-140)): 1.76e-07 M
IC50 (Homo sapiens, SNU1, SNU-1 (Stomach), read-out: IC50 [M] (ProliFiler-140)): 5.9e-08 M
IC50 (Homo sapiens, SNU-16, SNU-16 (Stomach), read-out: IC50 [M] (ProliFiler-140)): 1.37e-07 M
IC50 (Homo sapiens, SU-DHL-5, SU-DHL-5 (Blood), read-out: IC50 [M] (ProliFiler-140)): 9.1e-09 M
IC50 (Homo sapiens, SW480, SW480 (Colon), read-out: IC50 [M] (ProliFiler-140)): 1.2e-07 M
IC50 (Homo sapiens, SW948, SW948 (Colon), read-out: IC50 [M] (ProliFiler-140)): 3.46e-07 M
IC50 (Homo sapiens, SW1783, SW-1783 (Brain), read-out: IC50 [M] (ProliFiler-140)): 2.99e-07 M
IC50 (Homo sapiens, SW-620, SW620 (Colon), read-out: IC50 [M] (ProliFiler-140)): 3.06e-07 M
IC50 (Homo sapiens, SiHa, SiHa (Ovary), read-out: IC50 [M] (ProliFiler-140)): 1.47e-07 M
IC50 (Homo sapiens, T47D, T-47D (Breast), read-out: IC50 [M] (ProliFiler-140)): 4.3e-07 M
IC50 (Homo sapiens, T98G, T98G (Brain), read-out: IC50 [M] (ProliFiler-140)): 1.17e-06 M
IC50 (Homo sapiens, U2OS, U2OS (Bone), read-out: IC50 [M] (ProliFiler-140)): 1.14e-07 M
IC50 (Homo sapiens, U-87 MG, U87MG (Brain), read-out: IC50 [M] (ProliFiler-140)): 1.6e-07 M
IC50 (Homo sapiens, U-118-MG, U118MG (Brain), read-out: IC50 [M] (ProliFiler-140)): 2.57e-07 M
IC50 (Homo sapiens, U-251, U251MG (Brain), read-out: IC50 [M] (ProliFiler-140)): 7.8e-07 M
IC50 (Homo sapiens, U-266, U-266 (Blood), read-out: IC50 [M] (ProliFiler-140)): 1.11e-07 M
IC50 (Homo sapiens, U-937, U-937 (Blood), read-out: IC50 [M] (ProliFiler-140)): 2.57e-08 M
IC50 (Homo sapiens, ZR-75-1, ZR-75-1 (Breast), read-out: IC50 [M] (ProliFiler-140)): 1.35e-06 M
IC50 (Ishikawa (Endometrium), listed as Dox, read-out: IC50 [M] (ProliFiler-140)): 7.74e-08 M
IC50 (J82 (Bladder), read-out: IC50 [M] (ProliFiler-140)): 7.98e-07 M
IC50 (JIMT-1 (Breast), listed as Dox, read-out: IC50 [M] (ProliFiler-140)): 1.29e-06 M
IC50 (Jurkat (Blood), listed as Dox, read-out: IC50 [M] (ProliFiler-140)): 4e-08 M
IC50 (K562 (Blood), listed as Dox, read-out: IC50 [M] (ProliFiler-140)): 4.42e-07 M
IC50 (KG-1 (Blood), read-out: IC50 [M] (ProliFiler-140)): 1.21e-06 M
IC50 (KG-1 a (Blood), listed as Dox, read-out: IC50 [M] (ProliFiler-140)): 4.9e-07 M
IC50 (Kato III (Stomach), listed as Dox, read-out: IC50 [M] (ProliFiler-140)): 8.99e-07 M
IC50 (LN229 (Brain), listed as Dox, read-out: IC50 [M] (ProliFiler-140)): 2.2e-07 M
IC50 (LOU-NH91 (Lung), listed as Dox, read-out: IC50 [M] (ProliFiler-140)): 2.89e-07 M
IC50 (LOU-NH91, LOU-NH91 (Lung), read-out: IC50 [M] (ProliFiler-140)): 2.9e-07 M
IC50 (LP-1 (Blood), listed as Dox, read-out: IC50 [M] (ProliFiler-140)): 6.62e-07 M
IC50 (LP-1 (Blood), read-out: IC50 [M] (ProliFiler-140)): 6.6e-07 M
IC50 (LnCap (Prostate), listed as Dox, read-out: IC50 [M] (ProliFiler-140)): 1.92e-07 M
IC50 (M07e (Blood), listed as Dox, read-out: IC50 [M] (ProliFiler-140)): 4.6e-08 M
IC50 (M-07e, M07e (Blood), read-out: IC50 [M] (ProliFiler-140)): 4.63e-08 M
